The source of these data is US20250171516A1, “PEPTIDE ACIDS AS A GLP1R AGONIST AND ANTIBODY-DRUG CONJUGATES THEREOF” (Regeneron Pharmaceuticals, Inc., priority 2023, published 2025).

Read-outs that look alike come from different tables or passages of the source. Starred links: 1 amine or outer side, 2 acyl side, 3 side chain; linkers in the order of their positions; H or OH if unused. Non-standard residues stand in square brackets, D forms with d. Residues, ends and D or L forms follow the SMILES beside them. ξ: configuration not given here. *: point of attachment. X3 = CCc1cc(OCCCCn2cc(COCCOCCOCCOCCOCCOCCOCCOCCOCCOCCOCCOCCN)nn2)ccc1-c1ccc(C[C@H](N[*:1])C(=O)[*:2])cc1; X1 = CCc1cc(OCCCCn2cc(COCCOCCOCCOCCOCCOCCOCCOCCN)nn2)ccc1-c1ccc(C[C@H](N[*:1])C(=O)[*:2])cc1; Bip(2'-Et,4'-O(CH2)4N3) = CCc1cc(OCCCCN=[N+]=[N-])ccc1-c1ccc(C[C@H](N)C(=O)O)cc1; Bip(2'-Et,4'-O(CH2)4NH2) = CCc1cc(OCCCCN)ccc1-c1ccc(C[C@H](N)C(=O)O)cc1; Malonyl(2,2-Me2,histaminyl) = CC(C)(C(=O)NCCc1cnc[nH]1)C(=O)*; Nva(5-(3,5-Me2Ph)) = Cc1cc(C)cc(CCC[C@H](N)C(=O)O)c1; Ala(1H-tetrazol-5-yl) = N[C@@H](Cc1nnn[nH]1)C(=O)O; αMePhe(2-F) = C[C@](N)(Cc1ccccc1F)C(=O)O; ξαMePhe(2-F) = CC(N)(Cc1ccccc1F)C(=O)O; tBu = CC(C)(C)*

The assay deals with GLP-1R (Homo sapiens, UniProt P43220). Kind of assay: GLP-1R cAMP assay of peptides (Tables 10, 14, 15). Format: cell-based.
GLP-1R, sequence (P43220 24-463): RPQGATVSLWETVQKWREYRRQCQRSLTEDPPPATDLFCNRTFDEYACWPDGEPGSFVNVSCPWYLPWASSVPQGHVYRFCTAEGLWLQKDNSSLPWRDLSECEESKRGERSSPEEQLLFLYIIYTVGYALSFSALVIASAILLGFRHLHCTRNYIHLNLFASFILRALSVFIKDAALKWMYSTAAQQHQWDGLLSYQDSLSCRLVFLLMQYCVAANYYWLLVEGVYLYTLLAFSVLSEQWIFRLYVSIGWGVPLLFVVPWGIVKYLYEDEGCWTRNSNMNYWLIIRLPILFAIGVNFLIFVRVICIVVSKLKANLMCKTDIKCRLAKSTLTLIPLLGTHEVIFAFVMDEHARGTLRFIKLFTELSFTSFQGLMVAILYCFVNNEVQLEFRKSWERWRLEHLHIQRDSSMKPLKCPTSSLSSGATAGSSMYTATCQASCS
Where [1] appears, read: Table 10, read-out: GLP-1R CAMP EC50.
Where [2] appears, read: Table 14, peptide amides, read-out: cAMP EC50.

The term EC50 denotes the concentration needed to bring the measured effect to its halfway point.

As for `CCc1cc(OCCCCn2cc(COCCOCCOCCOCCOCCOCCOCCOCCN)nn2)ccc1-c1ccc(C[C@H](NC(=O)[C@H](CC(=O)O)NC(=O)[C@H](CO)NC(=O)[C@@H](NC(=O)[C@](C)(Cc2ccccc2F)NC(=O)[C@@H](NC(=O)CNC(=O)[C@H](Cc2nnn[nH]2)NC(=O)C(C)(C)C(=O)NCCc2cnc[nH]2)[C@@H](C)O)[C@@H](C)O)C(N)=O)cc1` ({Malonyl(2,2-Me2,histaminyl)}-[Ala(1H-tetrazol-5-yl)]GT[αMePhe(2-F)]TSD[X1]-NH2), under “Table 10”, the “GLP-1R CAMP Max” value amounted to 104.11%. Further, the EC50 under setting [1] stood at 59.6 nM.

`CCc1cc(OCCCCn2cc(COCCOCCOCCOCCOCCOCCOCCOCCOCCOCCOCCOCCN)nn2)ccc1-c1ccc(C[C@H](NC(=O)[C@H](CC(=O)O)NC(=O)[C@H](CO)NC(=O)[C@@H](NC(=O)[C@](C)(Cc2ccccc2F)NC(=O)[C@@H](NC(=O)CNC(=O)[C@H](Cc2nn[nH]n2)NC(=O)C(C)(C)C(=O)NCCc2c[nH]cn2)[C@@H](C)O)[C@@H](C)O)C(=O)N[C@@H](CCCc2cc(C)cc(C)c2)C(N)=O)cc1` ({Malonyl(2,2-Me2,histaminyl)}-[Ala(1H-tetrazol-5-yl)]GT[αMePhe(2-F)]TSD[X3][Nva(5-(3,5-Me2Ph))]-NH2): the 50% effective concentration (EC50) under setting [2] is 1.89 nM.

Regarding `CCc1cc(OCCCCN=[N+]=[N-])ccc1-c1ccc(C[C@H](NC(=O)[C@H](CC(=O)O)NC(=O)[C@H](COC(C)(C)C)NC(=O)[C@@H](NC(=O)C(C)(Cc2ccccc2F)NC(=O)[C@@H](NC(=O)CNC(=O)[C@H](Cc2nnn[nH]2)NC(=O)C(C)(C)C(=O)NCCc2cnc[nH]2)[C@@H](C)O)[C@@H](C)O)C(=O)N[C@@H](CCCc2cc(C)cc(C)c2)C(=O)O)cc1` (stereo partly drawn) ({Malonyl(2,2-Me2,histaminyl)}-[Ala(1H-tetrazol-5-yl)]GT[ξαMePhe(2-F)]TS(tBu)D[Bip(2'-Et,4'-O(CH2)4N3)][Nva(5-(3,5-Me2Ph))]-OH), under “Table 10”, the “GLP-1R CAMP Max” value is listed as 122.44%. For the same compound, the EC50 under setting [1] was 2.94 nM.

For the compound `CCc1cc(OCCCCN=[N+]=[N-])ccc1-c1ccc(C[C@H](NC(=O)[C@H](CC(=O)O)NC(=O)[C@H](CO)NC(=O)[C@@H](NC(=O)C(C)(Cc2ccccc2F)NC(=O)[C@@H](NC(=O)CNC(=O)[C@H](Cc2nnn[nH]2)NC(=O)C(C)(C)C(=O)NCCc2cnc[nH]2)[C@@H](C)O)[C@@H](C)O)C(=O)O)cc1` (stereo partly drawn) [AA10-AA9-AA8-AA7-AA6-AA5-AA4-AA3-AA2-OH], under “Table 10”, the “GLP-1R CAMP Max” value turned out to be 97.92%. Besides, the EC50 under setting [1] is 51.2 nM.

`C[C@@H](O)[C@H](NC(=O)CNC(=O)[C@H](Cc1nn[nH]n1)NC(=O)C(C)(C)C(=O)NCCc1cnc[nH]1)C(=O)N[C@@](C)(Cc1ccccc1F)C(=O)N[C@H](C(=O)N[C@@H](CO)C(=O)N[C@@H](CC(=O)O)C(=O)O)[C@@H](C)O` [AA10-AA9-AA8-AA7-AA6-AA5-AA4-AA3-OH]: the “GLP-1R CAMP Max” value (Table 10) is reported as −0.25%. For the same compound, the EC50 under setting [1] was greater than 1000 nM.

As for `C[C@@H](O)[C@H](NC(=O)CNC(=O)[C@H](Cc1nn[nH]n1)NC(=O)C(C)(C)C(=O)NCCc1cnc[nH]1)C(=O)N[C@@](C)(Cc1ccccc1F)C(=O)N[C@H](C(=O)N[C@@H](CO)C(=O)O)[C@@H](C)O` [AA10-AA9-AA8-AA7-AA6-AA5-AA4-OH] ({Malonyl(2,2-Me2,histaminyl)}-[Ala(1H-tetrazol-5-yl)]GT[αMePhe(2-F)]TS-OH), for the setting “Table 10”, the “GLP-1R CAMP Max” value is given as −0.86%. Moreover, under setting [1], the EC50 is greater than 1000 nM.

Turning to `C[C@@H](O)[C@H](NC(=O)[C@](C)(Cc1ccccc1F)NC(=O)[C@@H](NC(=O)CNC(=O)[C@H](Cc1nn[nH]n1)NC(=O)C(C)(C)C(=O)NCCc1cnc[nH]1)[C@@H](C)O)C(=O)O` [AA10-AA9-AA8-AA7-AA6-AA5-OH] ({Malonyl(2,2-Me2,histaminyl)}-[Ala(1H-tetrazol-5-yl)]GT[αMePhe(2-F)]T-OH), the “GLP-1R CAMP Max” value (Table 10) is listed as −1.23%. Under setting [1], the EC50 is greater than 1000 nM.

With `C[C@@H](O)[C@H](NC(=O)CNC(=O)[C@H](Cc1nn[nH]n1)NC(=O)C(C)(C)C(=O)NCCc1cnc[nH]1)C(=O)N[C@@](C)(Cc1ccccc1F)C(=O)O` [AA10-AA9-AA8-AA7-AA6-OH] ({Malonyl(2,2-Me2,histaminyl)}-[Ala(1H-tetrazol-5-yl)]GT[αMePhe(2-F)]-OH), the “GLP-1R CAMP Max” value (Table 10) is −1.13%. Moreover, the EC50 under setting [1] is greater than 1000 nM.

As to `C[C@@H](O)[C@H](NC(=O)CNC(=O)[C@H](Cc1nn[nH]n1)NC(=O)C(C)(C)C(=O)NCCc1cnc[nH]1)C(=O)O` [AA10-AA9-AA8-AA7-OH], the “GLP-1R CAMP Max” value (Table 10) is listed as −0.52%. For the same compound, the EC50 under setting [1] was greater than 1000 nM.

Take `CC(C)(C(=O)NCCc1cnc[nH]1)C(=O)N[C@@H](Cc1nn[nH]n1)C(=O)NCC(=O)O` [AA10-AA9-AA8-OH]: for the setting “Table 10”, the “GLP-1R CAMP Max” value is on record as −1.39%. The EC50 under setting [1] was greater than 1000 nM.

As for `CCc1cc(OCCCCN=[N+]=[N-])ccc1-c1ccc(C[C@H](NC(=O)[C@H](CC(=O)O)NC(=O)[C@H](CO)NC(=O)[C@@H](NC(=O)[C@](C)(Cc2ccccc2F)NC(=O)[C@@H](NC(=O)CNC(=O)[C@H](Cc2nn[nH]n2)NC(=O)C(C)(C)C(=O)NCCc2cnc[nH]2)[C@@H](C)O)[C@@H](C)O)C(=O)N[C@@H](CCCc2cc(C)cc(C)c2)C(N)=O)cc1` [M2361] ({Malonyl(2,2-Me2,histaminyl)}-[Ala(1H-tetrazol-5-yl)]GT[αMePhe(2-F)]TSD[Bip(2'-Et,4'-O(CH2)4N3)][Nva(5-(3,5-Me2Ph))]-NH2), under setting [2], the EC50 came out at 0.359 nM.

For `CCc1cc(OCCCCN=[N+]=[N-])ccc1-c1ccc(C[C@H](NC(=O)[C@H](CC(=O)O)NC(=O)[C@H](CO)NC(=O)[C@@H](NC(=O)[C@](C)(Cc2ccccc2F)NC(=O)[C@@H](NC(=O)CNC(=O)[C@H](Cc2nnn[nH]2)NC(=O)C(C)(C)C(=O)NCCc2cnc[nH]2)[C@@H](C)O)[C@@H](C)O)C(=O)N[C@@H](CCCc2cc(C)cc(C)c2)C(N)=O)cc1` [M2361] ({Malonyl(2,2-Me2,histaminyl)}-[Ala(1H-tetrazol-5-yl)]GT[αMePhe(2-F)]TSD[Bip(2'-Et,4'-O(CH2)4N3)][Nva(5-(3,5-Me2Ph))]-NH2), the concentration for a half-maximal effect (EC50) under setting [2] amounted to 0.497 nM.

For `CCc1cc(OCCCCN=[N+]=[N-])ccc1-c1ccc(C[C@H](NC(=O)[C@H](CC(=O)O)NC(=O)[C@H](CO)NC(=O)[C@@H](NC(=O)[C@](C)(Cc2ccccc2F)NC(=O)[C@@H](NC(=O)CNC(=O)[C@@H](N)Cc2nn[nH]n2)[C@@H](C)O)[C@@H](C)O)C(=O)N[C@@H](CCCc2cc(C)cc(C)c2)C(N)=O)cc1` [M2383] (H-[Ala(1H-tetrazol-5-yl)]GT[αMePhe(2-F)]TSD[Bip(2'-Et,4'-O(CH2)4N3)][Nva(5-(3,5-Me2Ph))]-NH2), the EC50 under setting [2] was 280 nM.

As to `CCc1cc(OCCCCN)ccc1-c1ccc(C[C@H](NC(=O)[C@H](CC(=O)O)NC(=O)[C@H](CO)NC(=O)[C@@H](NC(=O)[C@](C)(Cc2ccccc2F)NC(=O)[C@@H](NC(=O)CNC(=O)[C@H](Cc2nnn[nH]2)NC(=O)C(C)(C)C(=O)NCCc2cnc[nH]2)[C@@H](C)O)[C@@H](C)O)C(=O)N[C@@H](CCCc2cc(C)cc(C)c2)C(N)=O)cc1` [M2642] ({Malonyl(2,2-Me2,histaminyl)}-[Ala(1H-tetrazol-5-yl)]GT[αMePhe(2-F)]TSD[Bip(2'-Et,4'-O(CH2)4NH2)][Nva(5-(3,5-Me2Ph))]-NH2), under setting [2], the EC50 was found to be 0.0502 nM.

As for `CCc1cc(OCCCCn2cc(COCCOCCOCCOCCOCCOCCOCCOCCN)nn2)ccc1-c1ccc(C[C@H](NC(=O)[C@H](CC(=O)O)NC(=O)[C@H](CO)NC(=O)[C@@H](NC(=O)[C@](C)(Cc2ccccc2F)NC(=O)[C@@H](NC(=O)CNC(=O)[C@@H](N)Cc2nnn[nH]2)[C@@H](C)O)[C@@H](C)O)C(=O)N[C@@H](CCCc2cc(C)cc(C)c2)C(N)=O)cc1` [M6295] (H-[Ala(1H-tetrazol-5-yl)]GT[αMePhe(2-F)]TSD[X1][Nva(5-(3,5-Me2Ph))]-NH2), the concentration for a half-maximal effect (EC50) under setting [2] was 351 nM.
